Experimental data from patent publication US20100075907A1, “NEUROMEDIN U RECEPTOR AGONISTS AND USES THEREOF” (priority 2006, published 2010).
Non-standard residues stand in square brackets, D forms with d. Residues, ends and D or L forms follow the SMILES beside them. No end group written: not given here. *: point of attachment. Succinimide(1-Et,3-yl) = CCN1C(=O)CC(*)C1=O; hArg = N=C(N)NCCCC[C@H](N)C(=O)O; dNle = CCCC[C@@H](N)C(=O)O

Target: T1, hNMUR1 (Homo sapiens, UniProt Q9HB89)
T1 sequence (Q9HB89 1-426): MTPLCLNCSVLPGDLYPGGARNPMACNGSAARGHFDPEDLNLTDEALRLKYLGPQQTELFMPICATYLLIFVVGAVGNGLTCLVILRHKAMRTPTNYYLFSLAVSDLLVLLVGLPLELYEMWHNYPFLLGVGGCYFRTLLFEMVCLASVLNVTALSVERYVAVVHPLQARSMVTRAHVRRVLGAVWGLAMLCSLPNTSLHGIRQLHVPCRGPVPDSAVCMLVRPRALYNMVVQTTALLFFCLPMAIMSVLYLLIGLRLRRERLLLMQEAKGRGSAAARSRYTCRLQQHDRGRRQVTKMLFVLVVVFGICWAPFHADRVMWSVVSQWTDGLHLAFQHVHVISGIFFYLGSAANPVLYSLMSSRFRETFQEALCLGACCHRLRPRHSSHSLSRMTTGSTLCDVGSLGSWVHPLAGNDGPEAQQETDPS
Assay: 125I-hNMU-25 binding assay, human NMUR1 membranes
Design: expressed in transfected cells; host or cells: HEK-293 FLP-In cells (pcDNA5); HEK-293/aeq17 lines (pIRES-puro) were also made; % inhibition of NMU-25 binding / % Activity: concentration or dose not given beside the values
Description: Confluent cell monolayers expressing NMU receptors (the HEK cells described above) were harvested with phosphate buffered saline, collected by centrifugation, and resuspended in membrane buffer (50 mM TrisCl pH 7.4, 5 mM MgCl2, 1× Protease Inhibitor Cocktail, 10 μM phosphoramidon). After the cell pellet was homogenized, the solution was centrifuged at 18,000 rpm for 20 minutes at 4° C. The pellet was resuspended in membrane buffer to yield a final concentration of 0.5-5 μg/μL of membrane and stored at −80° C.
Experiments were performed in assay buffer (25 mM TrisCl, pH 7.4, 10 mM MgCl2, 2 mM EDTA, 1× Protease Inhibitor Cocktail, 100 μg/mL Bacitricin, 10 μM phosphoramidon) in 200 μL volumes in a 96-well format using 2-5 μg of membrane and 0.1 nM ^125I-hNMU-25 (about 12,000 cpm/well). For non-specific binding, 1 μM hNMU-25 was added. About 5 μL of peptides were added to measure antagonist activity, and the entire reaction was incubated at room temperature with shaking for 80 minutes. The reaction was terminated by rapid filtration through 0.3% poly-ethylenimine presoaked Millipore 96-well filter plates and washed with ice-cold buffer (5 mM TrisCl pH 7.4, 10 mM MgCl2, 2.5 mM EDTA, 0.04% Triton X-100). Plates were air-dried overnight at room temperature and recovered radioactivity was determined by standard scintillation counting. IC50 values were determined using GraphPad Prism software.
Concentration-response curves and radioligand-binding data were fitted using Prism (GraphPad Software). Results are summarized below in Tables 8 and 9.

[1] = Table 8, HEK-hR1, second (binding) column pair

CC(=O)N[C@@H](Cc1ccccc1)C(=O)N[C@H](CC(C)C)C(=O)N[C@@H](Cc1c[nH]c2ccccc12)C(=O)N[C@@H](CCCNC(=N)N)C(=O)N1CCC[C@H]1C(=O)N[C@@H](CCCNC(=N)N)C(=O)N[C@@H](CC(N)=O)C(N)=O [Agonist E, Ac-F-(D-L)-WRPRN-CONH2] (Ac-F[dL]WRPRN-NH2) was tested, and the “% Activity” value (Table 8, HEK-hR1, binding) was 93%.

For H-YFGWRPRN-NH2 [Agonist C], the “% Activity” value (Table 8, HEK-hR1, binding) was 100%.

For CC(C)C[C@H](NC(=O)[C@H](Cc1c[nH]c2ccccc12)NC(=O)[C@H](Cc1ccccc1)NC(=O)CNC(=O)[C@H](CCCNC(=N)N)NC(=O)[C@H](CO)NC(=O)[C@H](CCC(N)=O)NC(=O)[C@H](CO)NC(=O)[C@H](C)NC(=O)[C@H](Cc1ccccc1)NC(=O)[C@@H]1CCCN1C(=O)[C@H](CO)NC(=O)[C@H](CCC(N)=O)NC(=O)[C@H](Cc1ccccc1)NC(=O)[C@H](CCC(=O)O)NC(=O)[C@H](CCC(=O)O)NC(=O)[C@H](CC(=O)O)NC(=O)[C@@H](NC(=O)[C@H](CCCNC(=N)N)NC(=O)[C@@H](N)Cc1ccccc1)C(C)C)C(=O)N[C@@H](Cc1ccccc1)C(=O)N[C@@H](CCCNC(=N)N)C(=O)N[C@@H](C)C(=O)N[C@@H](CCCCNC(=N)N)C(=O)N[C@@H](CC(N)=O)C(N)=O [Agonist P] (H-FRVDEEFQSPFASQSRGFWLFRA[hArg]N-NH2; N-terminus assumed), the “% Activity” value (Table 9, HEK-hR1, binding) was 1% and the IC50 (Table 9, HEK-hR1, binding) was greater than 1000 nM.

CCCC[C@@H](NC(=O)[C@H](CCCNC(=N)N)NC(=O)[C@@H]1CCCN1C(=O)[C@H](CCCNC(=N)N)NC(=O)[C@H](Cc1ccccc1)NC(=O)[C@H](CC(C)C)NC(=O)[C@H](Cc1c[nH]c2ccccc12)NC(=O)[C@H](Cc1ccccc1)NC(=O)CNC(=O)[C@H](CCCNC(=N)N)NC(=O)[C@H](CO)NC(=O)[C@H](CCC(N)=O)NC(=O)[C@H](CO)NC(=O)[C@H](C)NC(=O)[C@H](Cc1ccccc1)NC(=O)[C@@H]1CCCN1C(=O)[C@H](CO)NC(=O)[C@H](CCC(N)=O)NC(=O)[C@H](Cc1ccccc1)NC(=O)[C@H](CCC(=O)O)NC(=O)[C@H](CCC(=O)O)NC(=O)[C@H](CC(=O)O)NC(=O)[C@@H](NC(=O)[C@H](CCCNC(=N)N)NC(=O)[C@@H](N)Cc1ccccc1)C(C)C)C(N)=O [Agonist Q] (H-FRVDEEFQSPFASQSRGFWLFRPR[dNle]-NH2) was tested, and the “% Activity” value (Table 9, HEK-hR1, binding) was 16% and the IC50 (Table 9, HEK-hR1, binding) was greater than 1000 nM.

In the case of “H-FRVDEEFQSPFASQSRGYFWRPRN-NH2 [Agonist G]”, the “% Activity” value (Table 8, HEK-hR1, binding) is reported as 97%.

With “Ac-FFRPRN-NH2 [Agonist F, Ac-FFRPRN-CONH2]” the “% Activity” value (Table 8, HEK-hR1, binding) was 30% and the IC50 [1] was greater than 1000 nM.

With CC(C)C[C@H](NC(=O)[C@H](Cc1ccccc1)NC(=O)[C@@H](N)Cc1ccc(O)cc1)C(=O)N[C@@H](Cc1ccccc1)C(=O)N[C@@H](CCCNC(=N)N)C(=O)N1CCC[C@H]1C(=O)N[C@@H](CCCNC(=N)N)C(=O)N[C@@H](CC(N)=O)C(N)=O [NMU-8, reference compound] the “% Activity” value (Table 9, HEK-hR1, binding) was 100%.

CC(C)C[C@H](NC(=O)[C@H](Cc1c[nH]c2ccccc12)NC(=O)[C@@H](N)Cc1ccccc1)C(=O)N[C@@H](Cc1ccccc1)C(=O)N[C@@H](CCCNC(=N)N)C(=O)N[C@@H](C)C(=O)N[C@@H](CCCCNC(=N)N)C(=O)N[C@@H](CC(N)=O)C(N)=O [Agonist J, FWLFRA-(Harg)-N-CONH2] (H-FWLFRA[hArg]N-NH2) was tested, and the “% Activity” value (Table 9, HEK-hR1, binding) was 34% and the IC50 (Table 9, HEK-hR1, binding) was greater than 1000 nM.

In the case of CCN1C(=O)CC(SC[C@H](NC(C)=O)C(=O)N[C@@H](Cc2ccccc2)C(=O)N[C@@H](CCCNC(=N)N)C(=O)N[C@H](C(=O)N[C@@H](CC(=O)O)C(=O)N[C@@H](CCC(=O)O)C(=O)N[C@@H](CCC(=O)O)C(=O)N[C@@H](Cc2ccccc2)C(=O)N[C@@H](CCC(N)=O)C(=O)N[C@@H](CO)C(=O)N2CCC[C@H]2C(=O)N[C@@H](Cc2ccccc2)C(=O)N[C@@H](C)C(=O)N[C@@H](CO)C(=O)N[C@@H](CCC(N)=O)C(=O)N[C@@H](CO)C(=O)N[C@@H](CCCNC(=N)N)C(=O)NCC(=O)N[C@@H](Cc2ccc(O)cc2)C(=O)N[C@@H](Cc2ccccc2)C(=O)N[C@H](C)C(=O)N[C@@H](Cc2c[nH]c3ccccc23)C(=O)N[C@@H](CCCNC(=N)N)C(=O)N2CCC[C@H]2C(=O)N[C@@H](CCCNC(=N)N)C(=O)N[C@@H](CC(N)=O)C(N)=O)C(C)C)C1=O (some centres unmarked) [NMU13] (Ac-C(Succinimide(1-Et,3-yl))FRVDEEFQSPFASQSRGYF[dA]WRPRN-NH2), the “% inhibition of NMU-25 binding” value (human R1) is reported as 100%.

With H-FWLFRARN-NH2 [Agonist L] the “% Activity” value (Table 9, HEK-hR1, binding) was 0% and the IC50 (Table 9, HEK-hR1, binding) was greater than 1000 nM.

With WALFRARN-NH2 [Agonist M] the “% Activity” value (Table 9, HEK-hR1, binding) was 0% and the IC50 (Table 9, HEK-hR1, binding) was greater than 1000 nM.

In the case of “H-FRVDEEFQSPFASQSRGYFLFRPRN-NH2 [hNMU-25, reference compound]”, the “% Activity” value (Table 9, HEK-hR1, binding) is reported as 100% and the IC50 (binding, human R1) is reported as 0.14 nM.

For FALFRPRN-NH2 [Agonist N], the “% Activity” value (Table 9, HEK-hR1, binding) was 38.4% and the IC50 (Table 9, HEK-hR1, binding) was greater than 1000 nM.

In the case of YFWRPRN-NH2 [Agonist A, YFWRPRN-CONH2], the “% Activity” value (Table 8, HEK-hR1, binding) is reported as 94% and the IC50 [1] is reported as 10 nM.

With CC(C)C[C@@H](NC(=O)[C@H](Cc1ccccc1)NC(=O)[C@H](Cc1ccc(O)cc1)NC(=O)CNC(=O)[C@H](CCCNC(=N)N)NC(=O)[C@H](CO)NC(=O)[C@H](CCC(N)=O)NC(=O)[C@H](CO)NC(=O)[C@H](C)NC(=O)[C@H](Cc1ccccc1)NC(=O)[C@@H]1CCCN1C(=O)[C@H](CO)NC(=O)[C@H](CCC(N)=O)NC(=O)[C@H](Cc1ccccc1)NC(=O)[C@H](CCC(=O)O)NC(=O)[C@H](CCC(=O)O)NC(=O)[C@H](CC(=O)O)NC(=O)[C@@H](NC(=O)[C@H](CCCNC(=N)N)NC(=O)[C@@H](N)Cc1ccccc1)C(C)C)C(=O)N[C@@H](Cc1c[nH]c2ccccc12)C(=O)N[C@@H](CCCNC(=N)N)C(=O)N1CCC[C@H]1C(=O)N[C@@H](CCCNC(=N)N)C(=O)N[C@@H](CC(N)=O)C(N)=O [Agonist H] (H-FRVDEEFQSPFASQSRGYF[dL]WRPRN-NH2; N-terminus assumed) the “% Activity” value (Table 8, HEK-hR1, binding) was 93%, the IC50 (binding, human R1) was 1.1 nM and the “% inhibition of NMU-25 binding” value (human R1) was 93%.

In the case of CC(C)C[C@H](NC(=O)[C@H](Cc1c[nH]c2ccccc12)NC(=O)[C@@H](N)Cc1ccccc1)C(=O)N[C@@H](Cc1ccccc1)C(=O)N[C@@H](CCCNC(=N)N)C(=O)N1CCC[C@H]1C(=O)N[C@@H](CCCCNC(=N)N)C(=O)N[C@@H](CC(N)=O)C(N)=O [Agonist I, FWLFRP-(Harg)-N-CONH2] (H-FWLFRP[hArg]N-NH2), the “% Activity” value (Table 9, HEK-hR1, binding) is reported as 23% and the IC50 (Table 9, HEK-hR1, binding) is reported as greater than 1000 nM.

For C[C@@H](NC(=O)[C@H](Cc1ccccc1)NC(=O)[C@@H](N)Cc1ccc(O)cc1)C(=O)N[C@@H](Cc1c[nH]c2ccccc12)C(=O)N[C@@H](CCCNC(=N)N)C(=O)N1CCC[C@H]1C(=O)N[C@@H](CCCNC(=N)N)C(=O)N[C@@H](CC(N)=O)C(N)=O [Agonist D, YF-(D-A)-WRPRN-CONH2] (H-YF[dA]WRPRN-NH2; N-terminus assumed), the “% Activity” value (Table 8, HEK-hR1, binding) was 100%.

With CC(C)C[C@@H](NC(=O)[C@H](Cc1ccccc1)NC(=O)[C@@H](N)Cc1ccc(O)cc1)C(=O)N[C@@H](Cc1c[nH]c2ccccc12)C(=O)N[C@@H](CCCNC(=N)N)C(=O)N1CCC[C@H]1C(=O)N[C@@H](CCCNC(=N)N)C(=O)N[C@@H](CC(N)=O)C(N)=O [Agonist B, YF-(D-L)-WRPRN-CONH2] (H-YF[dL]WRPRN-NH2) the “% Activity” value (Table 8, HEK-hR1, binding) was 96%.

CC(C)C[C@H](NC(=O)[C@H](Cc1c[nH]c2ccccc12)NC(=O)[C@H](Cc1ccccc1)NC(=O)CNC(=O)[C@H](CCCNC(=N)N)NC(=O)[C@H](CO)NC(=O)[C@H](CCC(N)=O)NC(=O)[C@H](CO)NC(=O)[C@H](C)NC(=O)[C@H](Cc1ccccc1)NC(=O)[C@@H]1CCCN1C(=O)[C@H](CO)NC(=O)[C@H](CCC(N)=O)NC(=O)[C@H](Cc1ccccc1)NC(=O)[C@H](CCC(=O)O)NC(=O)[C@H](CCC(=O)O)NC(=O)[C@H](CC(=O)O)NC(=O)[C@@H](NC(=O)[C@H](CCCNC(=N)N)NC(=O)[C@@H](N)Cc1ccccc1)C(C)C)C(=O)N[C@@H](Cc1ccccc1)C(=O)N[C@@H](CCCNC(=N)N)C(=O)N1CCC[C@H]1C(=O)N[C@@H](CCCCNC(=N)N)C(=O)N[C@@H](CC(N)=O)C(N)=O [Agonist O] (H-FRVDEEFQSPFASQSRGFWLFRP[hArg]N-NH2; N-terminus assumed) was tested, and the “% Activity” value (Table 9, HEK-hR1, binding) was 64% and the IC50 (Table 9, HEK-hR1, binding) was 400 nM.
